Data from the Kinase Knowledgebase extract (Sharma et al. 2016).
pIC50: −log10 of the molar value.

target: PIK3CA (human) (UniProt P42336); assay: Assessment of PIK3CA Kinase Activity
Sequence (P42336 whole entry, looked up): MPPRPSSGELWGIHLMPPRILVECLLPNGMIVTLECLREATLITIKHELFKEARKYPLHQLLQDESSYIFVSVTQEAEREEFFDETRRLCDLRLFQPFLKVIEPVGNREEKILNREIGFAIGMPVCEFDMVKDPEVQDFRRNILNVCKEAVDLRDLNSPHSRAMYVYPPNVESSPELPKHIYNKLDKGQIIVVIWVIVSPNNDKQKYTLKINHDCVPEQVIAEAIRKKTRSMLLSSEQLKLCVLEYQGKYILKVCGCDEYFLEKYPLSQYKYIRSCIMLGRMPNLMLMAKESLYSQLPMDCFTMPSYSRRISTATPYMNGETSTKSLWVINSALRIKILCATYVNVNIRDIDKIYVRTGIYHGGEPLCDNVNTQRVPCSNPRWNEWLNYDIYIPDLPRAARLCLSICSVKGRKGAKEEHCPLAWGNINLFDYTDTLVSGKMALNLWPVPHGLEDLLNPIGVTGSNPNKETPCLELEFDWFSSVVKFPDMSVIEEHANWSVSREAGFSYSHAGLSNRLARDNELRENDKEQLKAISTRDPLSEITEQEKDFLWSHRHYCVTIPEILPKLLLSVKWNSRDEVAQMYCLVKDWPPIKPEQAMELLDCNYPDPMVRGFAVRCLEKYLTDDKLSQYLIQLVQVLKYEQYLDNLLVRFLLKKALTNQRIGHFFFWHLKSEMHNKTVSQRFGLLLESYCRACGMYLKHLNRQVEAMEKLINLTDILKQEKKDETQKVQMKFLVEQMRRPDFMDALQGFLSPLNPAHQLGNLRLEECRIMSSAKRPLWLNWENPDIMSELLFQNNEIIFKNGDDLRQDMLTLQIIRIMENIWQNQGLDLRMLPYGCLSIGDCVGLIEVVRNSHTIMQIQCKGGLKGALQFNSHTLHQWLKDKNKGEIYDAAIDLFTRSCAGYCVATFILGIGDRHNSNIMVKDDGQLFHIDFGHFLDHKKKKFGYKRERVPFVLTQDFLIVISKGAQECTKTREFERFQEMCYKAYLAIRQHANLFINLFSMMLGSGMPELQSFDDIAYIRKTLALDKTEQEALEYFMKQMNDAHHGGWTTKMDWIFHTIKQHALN

Row | pIC50 | Compound
1 | > 6.00 | CC(C)n1nc(CO)nc1-c1cn2c(n1)-c1cnc(N(C)C)cc1OCC2
2 | > 6.00 | CC(C)n1ncnc1-c1cn2c(n1)-c1cc(-c3cn[nH]c3)ccc1OCC2
3 | > 6.00 | Cc1nc(-c2ccc3c(c2)OCCn2cc(-c4ncnn4C(C)C)nc2-3)cn1CC(C)(C)O
4 | > 6.00 | Cc1ncc(-c2ccc3c(c2)OCCn2cc(-c4ncnn4C(C)C)nc2-3)n1CCO
5 | > 6.00 | CC(C)n1ncnc1-c1cn2c(n1)-c1cnc(O[C@@H](C)C(N)=O)cc1OCC2
6 | > 6.00 | CC(C)n1ncnc1-c1cc2n(n1)-c1cc(C3CN(Cc4ccncc4)C3)ccc1OCC2
7 | > 6.00 | CC(C)n1ncnc1-c1cn2c(n1)-c1ccc(N3C[C@@H](F)C[C@H]3C(N)=O)cc1OCC2
8 | > 6.00 | Cc1nc(-c2cn3c(n2)-c2ccc(C4CCN(C(C)(C)CO)CC4)cc2OCC3)n(C(C)C)n1
9 | > 6.00 | Clc1ccccc1-n1ncnc1-c1cn2c(n1)-c1cc(-c3ccccc3)ccc1OCC2
10 | > 6.00 | CC(C)(O)CN1CCC(c2ccc3c(c2)-c2nn(-c4ncnn4-c4ccc(F)cc4F)cc2CCO3)CC1
11 | > 6.00 | O=c1[nH]cccc1-c1ccc2c(c1)-c1nc(-c3ncnn3CC(F)(F)F)cn1CCO2
12 | > 6.00 | Cc1nc(-c2cn3c(n2)-c2ccc(-c4cnn(CC(C)C(N)=O)c4)cc2OCC3)n(C(C)C)n1 (stereo not drawn)
13 | > 6.00 | CC(C)n1ncnc1-c1cn2c(n1)-c1ccc(C3CN(C(=O)C4(N)CC4)C3)cc1OCC2
14 | > 6.00 | CC(C)n1ncnc1-c1cn2c(n1)-c1cnc(N[C@H](C)C(N)=O)cc1OCC2
15 | > 6.00 | CC(Cc1ccc2c(c1)OCCn1cc(-c3ncnn3C(C)C)nc1-2)C(N)=O (stereo not drawn)
16 | > 6.00 | CC(C)n1ncnc1-c1cn2c(n1)-c1ccc(N(C)[C@@H](C)C(N)=O)cc1OCC2
17 | > 6.00 | Cc1nc(-c2cn3c(n2)-c2cnc(N4CCC[C@H]4C(N)=O)cc2OCC3)n(CC(F)(F)F)n1
18 | > 6.00 | Fc1ccc(-n2ncnc2-c2cn3c(n2)-c2cnc(NCc4ncc[nH]4)cc2OCC3)c(F)c1
19 | > 6.00 | CC(C)n1nc(N)nc1-c1cn2c(n1)-c1ccc(-c3cncc(F)c3)cc1OCC2

Row | pIC50 | Compound
20 | > 6.00 | O=C(Nc1cn[nH]c1)c1ccc2c(c1)-n1nc(-c3ncnn3CC(F)(F)F)cc1CCO2
21 | > 6.00 | Cc1nc(-c2cn3c(n2)-c2ccc(-c4cnn(CCN5CCOCC5)c4)cc2OCC3)n(C(C)C)n1
22 | > 6.00 | Cc1nc(-c2cn3c(n2)-c2ccc(C4CCN(CC(=O)N(C)C)CC4)cc2OCC3)n(C(C)C)n1
23 | > 6.00 | CC(C)n1ncnc1-c1cn2c(n1)-c1ccc(COC(N)=O)cc1OCC2
24 | > 6.00 | CC(C)n1ncnc1-c1cn2c(n1)-c1ccc(N3CCNC(=O)C3)nc1OCC2
25 | > 6.00 | CC(C)n1ncnc1-c1cn2c(n1)-c1cnc(OCC(N)=O)cc1OCC2
26 | > 6.00 | CC(C)n1ncnc1-c1cn2c(n1)-c1ccc(O[C@@H](CCO)C(N)=O)cc1OCC2
27 | > 6.00 | CC(C)n1ncnc1-c1cn2c(n1)-c1cnc(N(C)CC(N)=O)cc1OCC2
28 | > 6.00 | CC(C)n1nccc1-c1cn2c(n1)-c1ccc(CN)cc1OCC2
29 | > 6.00 | CC(C)n1ncnc1-c1cn2c(n1)-c1ccc(-c3ccccc3C(N)=O)cc1OCC2
30 | > 6.00 | CC(C)n1ncnc1-c1cn2c(n1)-c1cnc(N3CCC(C)(C)[C@H]3C(N)=O)cc1OCC2
31 | > 6.00 | Nc1nc(-c2cn3c(n2)-c2cc(F)ccc2OCC3)n(CC(F)(F)F)n1
32 | > 6.00 | CC(C)n1nccc1-c1cn2c(n1)CCOc1cc(C(N)=O)cnc1-2
33 | > 6.00 | CC(C)n1ncnc1-c1cn2c(n1)-c1cnc(N3C4CCC3C(=O)NC4)cc1OCC2 (stereo not drawn)
34 | > 6.00 | Cc1nc(-c2cn3c(n2)-c2ccc(OC4CCC4)cc2OCC3)n(C(C)C)n1
35 | > 6.00 | CC(C)n1nccc1-c1cn2c(n1)-c1cnc(N3CCC[C@H]3C(N)=O)cc1OCC2
36 | > 6.00 | CC(C)n1ncnc1-c1cn2c(n1)-c1ccc(-c3cn(CCO)cn3)cc1OCC2
37 | > 6.00 | Cc1nc(-c2cn3c(n2)-c2ccc(N4CCC[C@H]4C(N)=O)cc2OCC3)n(CC(F)(F)F)n1
38 | > 6.00 | Cc1nc(-c2cn3c(n2)-c2ccc(Br)cc2OCC3)n(C(C)C)n1
